# Experimental data taken from patent publication US20030092753A1, “Methods for the treatment and prevention of neurodegenerative conditions” (Wyeth, priority 1999, published 2003).
# Test system: rat hippocampal slices
# Test: Reduction of azide-induced ischemic efflux of glutamate in rat hippocampal slices
# Assay type: cell-based
# Details: AUC vs control, statistically significant
# Method: Adatanserin was evaluated for its ability to reduce the azide-induced ischemic efflux of glutamate in rat hippocampal slices. Three Krebs buffers were used in the experiments. Normal Krebs buffer consisted of a solution containing the following: (122 mM NaCl, 3 mM KCl, 24 mM NaHCO3, 10 mM glucose, 0.315 mM K2HPO4, 1.2 mM MgSO4, 4 mM CaCl2). Aglycemic Krebs buffer was similar to the normal buffer with the exception that glucose was not added. Ischemic Krebs buffer was the aglycemic solution which contained varying concentrations of sodium azide (0-30 mM).
# Rat hippocampi were dissected on a cold platform and suspended in ice cold oxygenated normal Krebs buffer. The tissue was cross-chopped at 350 microns on a McIlwain tissue chopper, then resuspended and washed three times with ice cold normal Krebs buffer. […] Amino acid concentrations were analyzed with reverse phase HPLC on a catacholarine column (Keystone Scinetific, 150×3 mm) employing an 0.05 M acetate/methanol gradient. […] Amino acids were visualized by derivatization with naphthalene-2,3-dicarboxaldehyde and fluorimetric detection (Dawson, L. A. et al., Improved Temporal Resolution of Microdialysis Measurement of Glutamate and Aspartate Using Capillary Electrophoresis with Laser Induced Fluorescence Detection. J. Chromatogr. B 1997, 694, 1204-1212). […]
smiles,measurement,setting,value
"O=C(NCCN1CCN(c2ncccn2)CC1)C12CC3CC(CC(C3)C1)C2 [adatanserin, N-[2-[4-(2-pyrimidinyl)-1-piperazinyl]ethyl]tricyclo[3.3.1.13.7]decane-1-carboxamide]",reduction of glutamate release (azide-induced ischemic efflux),adatanserin 100 nM,72%
same,reduction of glutamate release (azide-induced ischemic efflux),adatanserin 1000 nM (1 μM),71%
